Assay results published in US8900845B2, “Methods and uses of KSR kinase, and mutations thereof” (Washington University, priority 2011, dated 2014).

Key:
FLAG-KSR and BRAF dimer = FLAG-KSR and BRAF dimer (Homo sapiens, UniProt P15056); assay: Co-immunoprecipitation of KSR/BRAF dimers in drug-treated cells; type: cell-based; details: cells overexpressing FLAG-KSR and BRAF, drug for 1 hour, KSR immunoprecipitates immunoblotted for BRAF
Protocol: (§1) Dimerization experiments: For most experiments, constructs for wild-type and mutated BRAF, CRAF and KSR1 were appended with epitope tags (FLAG, 6× His, Myc, GFP) and were expressed by transient transfection into 293T cells. Cells were lysed in a buffer containing 1% NP40 and 0.1% deoxycholate. Cells were pretreated with drugs for 1 hour prior to lysis. Immunoprecipitates were analyzed by gel electrophoresis and immunoblotted after transfer to nitrocellulose membranes using standard methods.
(§2) Cells grown in serum, expressing combinations of KSR, BRAF and CRAF, were treated with both drugs. Co-immunoprecipitations were then performed to examine dimer formation.
(§3) KSR immunoprecipitates were prepared from cells overexpressing FLAG-KSR and BRAF after treatment with the indicated drug for 1 hour and immunoblotted using antibodies to BRAF.

KSR and CRAF dimer = biological target: T1, KSR and CRAF dimer (Homo sapiens, UniProt P04049); assay: Co-immunoprecipitation of KSR/CRAF dimers in drug-treated cells; type: cell-based; details: cells overexpressing FLAG-KSR and myc-CRAF, drug for 1 hour, FLAG-KSR immunoprecipitates immunoblotted for CRAF (myc)
T1 construct: expressed in transfected cells; host or cells: 293T cells
Protocol: as §1, §2, §3

[1] = system: MEK phosphorylation (pMEK); assay: MEK activation (pMEK immunoblot) in cells co-expressing KSR and CRAF; type: cell-based; details: saturating dose, 2 hours
Protocol: Kinase reactions: Cells transfected with various constructs were treated or not with PLX4720 for 1-2 hours. Cells were lysed with 1% NP40 and immunoprecipitates prepared.
In these experiments, we tested the function of the CRAF/KSR dimer by co-expressing both proteins and using PLX4720 (FIG. 1F) or GDC0879 (data not shown) to induce dimer formation between the two proteins. […] Cells expressing the indicated constructs were treated with a saturating dose of PLX for 2 hours before cell lysates were prepared and analyzed for pMEK by immunoblotting.

BRAF/CRAF dimers = BRAF/CRAF dimers (Homo sapiens, UniProt P04049+P15056); details: cells overexpressing myc-CRAF and BRAF, drug for 1 hour, CRAF immunoprecipitates immunoblotted for BRAF
Protocol: as §1, §2, §3

[2] = biological target: KSR kinase activity towards MEK (Homo sapiens, UniProt P04049); details: cells co-expressing KSR and CRAF treated with 10 μM for one hour; immunoprecipitates pre-treated with 50 μM PLX
Sequence of KSR kinase activity towards MEK (Q61097 whole entry partner): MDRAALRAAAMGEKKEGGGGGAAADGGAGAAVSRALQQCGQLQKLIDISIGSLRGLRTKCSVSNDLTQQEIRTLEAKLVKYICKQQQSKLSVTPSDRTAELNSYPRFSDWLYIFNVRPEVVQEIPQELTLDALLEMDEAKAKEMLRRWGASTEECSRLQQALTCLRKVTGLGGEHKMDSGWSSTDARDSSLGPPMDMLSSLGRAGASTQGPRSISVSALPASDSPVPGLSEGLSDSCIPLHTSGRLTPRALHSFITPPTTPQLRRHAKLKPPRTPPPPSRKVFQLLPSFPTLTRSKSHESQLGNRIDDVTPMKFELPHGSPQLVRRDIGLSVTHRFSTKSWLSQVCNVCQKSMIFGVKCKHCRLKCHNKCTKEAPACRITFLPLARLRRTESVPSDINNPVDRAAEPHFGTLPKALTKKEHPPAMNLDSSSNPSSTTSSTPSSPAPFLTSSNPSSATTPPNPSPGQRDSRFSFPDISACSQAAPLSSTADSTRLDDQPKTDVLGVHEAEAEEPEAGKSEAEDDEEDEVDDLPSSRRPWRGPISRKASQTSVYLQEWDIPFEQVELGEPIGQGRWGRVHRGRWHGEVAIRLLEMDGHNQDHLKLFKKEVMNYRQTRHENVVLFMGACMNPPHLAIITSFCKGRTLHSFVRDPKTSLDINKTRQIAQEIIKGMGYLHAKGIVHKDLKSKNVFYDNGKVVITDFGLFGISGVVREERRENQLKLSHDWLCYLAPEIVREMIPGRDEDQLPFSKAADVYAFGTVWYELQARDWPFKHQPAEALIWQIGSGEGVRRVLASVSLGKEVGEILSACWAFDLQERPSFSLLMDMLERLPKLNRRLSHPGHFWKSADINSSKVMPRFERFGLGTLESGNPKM
Sequence of KSR kinase activity towards MEK (P04049 whole entry): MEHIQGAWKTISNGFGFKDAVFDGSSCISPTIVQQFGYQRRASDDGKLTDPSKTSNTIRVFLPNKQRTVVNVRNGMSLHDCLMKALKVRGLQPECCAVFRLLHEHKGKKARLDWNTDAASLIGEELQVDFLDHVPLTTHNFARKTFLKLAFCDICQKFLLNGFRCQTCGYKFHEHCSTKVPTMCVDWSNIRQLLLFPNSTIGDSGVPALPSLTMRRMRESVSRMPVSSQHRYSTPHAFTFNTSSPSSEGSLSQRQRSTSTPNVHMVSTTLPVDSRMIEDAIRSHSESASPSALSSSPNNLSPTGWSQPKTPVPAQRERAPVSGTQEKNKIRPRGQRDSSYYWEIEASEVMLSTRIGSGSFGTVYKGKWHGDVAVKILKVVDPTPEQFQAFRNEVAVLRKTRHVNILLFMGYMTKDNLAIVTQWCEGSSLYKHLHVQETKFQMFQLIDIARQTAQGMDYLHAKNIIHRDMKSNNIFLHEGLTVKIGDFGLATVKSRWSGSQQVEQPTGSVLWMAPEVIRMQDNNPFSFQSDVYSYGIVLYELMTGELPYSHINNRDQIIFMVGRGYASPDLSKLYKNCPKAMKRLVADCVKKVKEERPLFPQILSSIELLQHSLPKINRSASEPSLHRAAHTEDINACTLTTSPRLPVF
Protocol: Kinase reactions: Cells transfected with various constructs were treated or not with PLX4720 for 1-2 hours. Cells were lysed with 1% NP40 and immunoprecipitates prepared. In vitro kinase reactions were performed in a standard buffer with 10 mM MgCl2, with 1 ug of kinase dead MEK, and 100 uM cold ATP. In some experiments, to inhibit contaminating Raf activity, 50 uM PLX4720 was preincubated with the reactions.
To test whether KSR might be activated by CRAF, we co-expressed KSR and CRAF and induced dimerization of CRAF with KSR by adding a low dose (10 μM) of PLX4720. KSR immunoprecipitates were then prepared and tested for kinase activity in vitro. To inhibit any contaminating RAF kinase activity co-precipitating with KSR, we preincubated the immunoprecipitates with an inhibitory dose of PLX4720 (50 μM). […] Cells were co-transfected with WT or ATP binding deficient KSR and CRAF and immunoprecipitates prepared after cells were treated with an activating dose of PLX (10 μM) for one hour. Immunoprecipitates were prepared, pre-treated with 50 μM PLX to inhibit co-precipitating RAF activity and then tested for kinase activity using purified MEK.

Sequence of BRAF/CRAF dimers (P15056 whole entry): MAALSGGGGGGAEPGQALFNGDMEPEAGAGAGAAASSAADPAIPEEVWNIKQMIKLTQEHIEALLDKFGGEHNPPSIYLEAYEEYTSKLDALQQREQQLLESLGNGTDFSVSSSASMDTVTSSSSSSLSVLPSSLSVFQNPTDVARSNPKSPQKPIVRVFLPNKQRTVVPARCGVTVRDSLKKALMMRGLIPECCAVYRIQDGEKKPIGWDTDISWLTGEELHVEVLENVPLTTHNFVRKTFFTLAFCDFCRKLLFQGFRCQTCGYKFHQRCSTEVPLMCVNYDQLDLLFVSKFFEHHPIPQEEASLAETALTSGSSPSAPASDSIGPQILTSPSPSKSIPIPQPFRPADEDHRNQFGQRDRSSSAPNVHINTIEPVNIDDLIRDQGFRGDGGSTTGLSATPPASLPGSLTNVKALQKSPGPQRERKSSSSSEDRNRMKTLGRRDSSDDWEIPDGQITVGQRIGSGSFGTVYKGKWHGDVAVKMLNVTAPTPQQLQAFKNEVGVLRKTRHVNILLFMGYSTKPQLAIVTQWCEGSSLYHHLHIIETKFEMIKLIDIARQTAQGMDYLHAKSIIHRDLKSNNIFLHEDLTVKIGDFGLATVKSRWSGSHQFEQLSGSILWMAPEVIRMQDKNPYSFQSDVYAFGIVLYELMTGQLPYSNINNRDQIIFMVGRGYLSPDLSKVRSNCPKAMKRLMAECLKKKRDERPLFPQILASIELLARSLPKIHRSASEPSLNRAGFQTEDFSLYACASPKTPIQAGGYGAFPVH
Sequence of BRAF/CRAF dimers (P04049 whole entry): as the sequence (P04049 whole entry) above
Sequence of FLAG-KSR and BRAF dimer (P15056 whole entry): as the sequence (P15056 whole entry) above
Sequence of FLAG-KSR and BRAF dimer (Q61097 whole entry partner): as the sequence (Q61097 whole entry partner) above
T1 sequence (P04049 whole entry): as the sequence (P04049 whole entry) above
T1 sequence (Q61097 whole entry partner): as the sequence (Q61097 whole entry partner) above

Which “dimer formation between KSR and BRAF” value (FLAG-KSR and BRAF dimer) does the source give for `CCCS(=O)(=O)Nc1ccc(F)c(C(=O)c2c[nH]c3ncc(Cl)cc23)c1F` [PLX4720] here?
Its value is “but not PLX4720 can induce dimer formation between FLAG-KSR and BRAF”.

What about the “dimer formation between KSR and CRAF” value (KSR and CRAF dimer) of the same compound?
The value was “induce dimer formation between KSR and CRAF”.

And the “MEK activation (pMEK)” value [1]?
Its value is “MEK was still activated”.

And the “dimer formation between BRAF and CRAF” value (BRAF/CRAF dimers)?
Its value is “but not PLX4720 induces dimers between BRAF and CRAF”.

What about the “kinase activity towards MEK in KSR immunoprecipitates” value [2] of the same compound?
The value was “induced kinase activity towards MEK in the KSR immunoprecipitates”.
